“And” between values parts separate entries of the source, which are not always exact repeats. Equal entries are not always repeated. Where two headings read alike, the source gives them in different places.
Columns and labels:
[1] = Clinical safety: adverse events (CTCAE version 4.0) and treatment adjustments; type: in vivo, human; conditions: for Participants who stopped treatment: 14-day intervention, seven participants per arm
Procedure: Hematological parameters and kidney and liver function were monitored before treatment and on days 7, 14, and 42. At each study visit, participants were clinically assessed by the study physician and safety assessments were performed. All participant-reported AE and SAE were evaluated in relation to VPA and pyrimethamine. Severity was graded according to the Common Terminology Criteria for Adverse Events (CTCAE) version 4.0. In the study protocol, a number of stopping rules were defined including a prespecified interim analysis after the inclusion of 14 participants focusing on the number of participants discontinuing study medication during the intervention phase, CD4^+ T cell count <200 cells/μl, possibly drug-related SAE/AE ≥ grade 4, or AIDS-related illness (Centers for Disease Control category C events).

HIV-1 = conditions: for Plasma HIV-1 RNA in the participants not remaining below LOQ: entire 6-week trial period, two on VPA, one on pyrimethamine, one on combination; for Plasma HIV-1 RNA, Day 0, 6hr / Plasma HIV-1 RNA, Day 1 / Plasma HIV-1 RNA, Day 7 / Plasma HIV-1 RNA, Day 10 / Plasma HIV-1 RNA, Day 14 / Plasma HIV-1 RNA, Day 15 / Plasma HIV-1 RNA, Day 21 / Plasma HIV-1 RNA, Day 42 / Plasma HIV-1 RNA, Day 28 / Plasma HIV-1 RNA, Day 0, 0hr: individual participants, one value each, /N; for Plasma HIV-1 RNA, Day 0, 6hr / Plasma HIV-1 RNA, Day 1 / Plasma HIV-1 RNA, Day 7 / Plasma HIV-1 RNA, Day 10 / Plasma HIV-1 RNA, Day 14 / Plasma HIV-1 RNA, Day 15 / Plasma HIV-1 RNA, Day 21 / Plasma HIV-1 RNA, Day 42 / Plasma HIV-1 RNA, Day 28: /P suffix not kept; for Plasma HIV-1 RNA, Day 0, 0hr: pretreatment, /P suffix (genome not detected / detected below quantitation) not kept
Source text: To achieve a constant and the earliest Tmax possible, participants received their first dose of the intervention regimen on day 0 in a fasted state. On day 0, cART and study medication intake were taken under direct supervision of the study staff. The 2-week intervention phase was followed by a 4-week post-intervention phase. Overall, participation involved 11 study visits. To obtain an additional post-intervention phase measurement for the inducible HIV-1 reservoir size, the study was amended and participants were asked to give written consent to an extra blood draw after the 4-week post-intervention phase ended. Plasma HIV-1 RNA levels (COBAS TaqMan; Roche, Basel, Switzerland; LOQ, 20 copies/ml) were monitored at all 11 visits. CD4^+ T cell counts were determined at screening, at the start and end of the intervention phase (days 0 and 14), at day 42, and at the post-intervention phase (≥day 42).

BAF complex = BAF complex target gene expression (IL-10, SOCS3, CBX7; control B-ACT) by RT-qPCR in participants; type: in vivo, human
Source text: We reasoned that the effect on the expression of these gene targets at later time points (days 14 and 42) would be less useful as specific biomarker of BAF complex inhibition due to treatment interruptions and potential induction via other pathways. […] These findings are consistent with, and might be the consequence of, the generally lower plasma pyrimethamine Ctrough in participants that received the combined intervention regimen compared to those that received solely pyrimethamine.
RT-qPCR reactions were conducted using GoTaq qPCR Master Mix (Promega) following the manufacturer’s protocol. The following thermal cycling protocol was used for amplification: 3 min at 95°C, followed by 40 cycles of 95°C for 10 s and 60°C for 30 s. Expression data were calculated using the 2^−∆∆Ct methodology ([73]). Cyclophilin A was used as a housekeeping gene for the analysis. The list of primers is available in table S9.

[2] = Plasma drug concentrations (pyrimethamine UPLC-MS/MS, VPA assay, unbound dolutegravir) in trial participants; type: in vivo, human; conditions: for Drug detectable in plasma: day 42 (28 days after end of treatment); for concentration at 6 h / concentration at 14 day: human, plasma, oral; for concentration at 14 day: day 14; for PLWH with VPA plasma levels exceeding the therapeutic window (up to 100 mg/liter): day 7
Procedure: Self-reported adherence was assessed at each study visit, and empty pill strips were collected after the 2-week intervention phase. […] A gradient (0.3 ml/min) with two eluents was used (A: 2 mM ammonium acetate + 0.1% formic acid in water; B: 2 mM ammonium acetate + 0.1% formic acid in methanol). […] For measurement validation, we performed linearity, correctness, LOD and lower LOQ, repeatability, reproducibility, measurement uncertainty, robustness, and carryover. […] Unbound dolutegravir plasma concentrations were quantified with a validated UPLC-MS/MS bioquantification method as previously described ([61]).

[3] = day 0, 6 hours after first dose relative to pretreatment, arm median
[4] = individual participants, one value each, listed as PYR

CCc1nc(N)nc(N)c1-c1ccc(Cl)cc1 [pyrimethamine]
Adverse events experienced on pyrimethamine (monotherapy and combination arms) of all AEs ([1]; 6-week study duration): 84 of 103
Grade 3 adverse events (number) ([1]; 6-week study duration): two
Participants who stopped treatment [1]: one
Induction of plasma viremia (HIV-1; day 1 time point): no evidence that pyrimethamine induced plasma viremia
Proportion of samples with plasma HIV-1 RNA above the assay detection limit (HIV-1; during the study at the fixed measurements, those with pyrimethamine exposure): 22.2%
Plasma HIV-1 RNA in the participants not remaining below LOQ (HIV-1): < 50 copies/ml
Plasma HIV-1 RNA, Day 0, 6hr (HIV-1): < 20
Plasma HIV-1 RNA, Day 1 (HIV-1): < 20
Plasma HIV-1 RNA, Day 7 (HIV-1): < 20
Plasma HIV-1 RNA, Day 10 (HIV-1): < 20
Plasma HIV-1 RNA, Day 14 (HIV-1): < 20
Plasma HIV-1 RNA, Day 15 (HIV-1): < 20
Plasma HIV-1 RNA, Day 21 (HIV-1): < 20
Plasma HIV-1 RNA, Day 42 (HIV-1): < 20
Plasma HIV-1 RNA, Day 28 (HIV-1; listed as PYR): < 20 (6×) and 20
Plasma HIV-1 RNA, Day 0, 0hr (HIV-1): < 20
Fold-induction in B-ACTIN gene expression at Day 0, 6 hours relative to Day 0, pretreatment (BAF complex; control gene, individual participants, one value each, listed as PYR): 1.29 and 1.51 and 0.82 and 0.94 (2×) and 0.86 and 1.04
Median fold increase in CBX7 gene expression (BAF complex; [3]): 1.68 fold
Median fold increase in IL-10 gene expression (BAF complex; [3]): 2.55 fold
Median fold increase in SOCS3 gene expression (BAF complex; [3]): 2.53 fold
Fold-induction in CBX7 gene expression at Day 0, 6 hours relative to Day 0, pretreatment (BAF complex; [4]): 1.68 and 1.12 and 12.42 and 4.23 and 2.02 and 1.25 and 1.03
Fold-induction in IL-10 gene expression at Day 0, 6 hours relative to Day 0, pretreatment (BAF complex; [4]): 2.24 and 2.74 and 1.48 and 1.74 and 6.66 and 6.4 and 2.54
Fold-induction in SOCS3 gene expression at Day 0, 6 hours relative to Day 0, pretreatment (BAF complex; [4]): 2.52 and 2.27 and 0.60 and 4.59 and 5.35 and 1.14 and 3.27
Median plasma concentration of pyrimethamine with CYP3A inducers ([2]; PLWH on efavirenz- or nevirapine-containing cART): did not have lower
Drug detectable in plasma [2]: No pyrimethamine or VPA was detectable
concentration at 6 h ([2]; 200 mg, Median plasma total pyrimethamine concentration, 6 hours after first dose (200 mg), pyrimethamine alone, seven participants): 1630 ng/mL
concentration at 6 h ([2]; 200 mg, Median pyrimethamine Ctrough by integrase inhibitor exposure, 6 hours, group printed first of 'versus' pair): 1300 ng/mL
concentration at 6 h ([2]; 200 mg, Median pyrimethamine Ctrough by integrase inhibitor exposure, 6 hours, group printed second of 'versus' pair): 1400 ng/mL
concentration at 6 h ([2]; Median plasma total pyrimethamine concentration, 6 hours after first dose, combination arm with VPA): 1160 ng/mL
concentration at 14 day ([2]; Median pyrimethamine Ctrough by integrase inhibitor exposure, uninterrupted pyrimethamine, group printed first): 2800 ng/mL
concentration at 14 day ([2]; Median pyrimethamine Ctrough by integrase inhibitor exposure, uninterrupted pyrimethamine, group printed second): 3200 ng/mL
concentration at 14 day ([2]; Median pyrimethamine Ctrough, combination arm with VPA, four PLWH with uninterrupted exposure): 1990 ng/mL
concentration at 14 day ([2]; Median pyrimethamine Ctrough, monotherapy arm, six PLWH with uninterrupted exposure): 3480 ng/mL
concentration at 14 day ([2]; Pyrimethamine plasma level, individual, LUNA-21 (combination arm), stopped treatment at day 10): 2520 ng/mL

CCCC(CCC)C(=O)O [valproic acid]
Participants who stopped treatment [1]: one
Plasma HIV-1 RNA in the participants not remaining below LOQ (HIV-1): < 50 copies/ml
Plasma HIV-1 RNA, Day 0, 6hr (HIV-1): < 20
Plasma HIV-1 RNA, Day 7 (HIV-1): < 20
Plasma HIV-1 RNA, Day 10 (HIV-1): < 20
Plasma HIV-1 RNA, Day 14 (HIV-1): < 20
Plasma HIV-1 RNA, Day 15 (HIV-1): < 20
Plasma HIV-1 RNA, Day 28 (HIV-1): < 20
Plasma HIV-1 RNA, Day 42 (HIV-1): < 20
Plasma HIV-1 RNA, Day 1 (HIV-1; listed as VPA): < 20 (6×) and 41
Plasma HIV-1 RNA, Day 21 (HIV-1; listed as VPA): < 20 (6×) and 21
Plasma HIV-1 RNA, Day 0, 0hr (HIV-1): < 20
mRNA levels of BAF target genes (IL-10, SOCS3, CBX7) (BAF complex; day 0, 6 hours after first dose relative to pretreatment): no increase
PLWH with VPA plasma levels exceeding the therapeutic window (up to 100 mg/liter) ([2]; those who continued VPA): three of nine
PLWH with VPA plasma levels exceeding the therapeutic window (up to 100 mg/liter) ([2]; those whose therapy was adjusted for toxicity while receiving VPA): three of the five
Drug detectable in plasma [2]: No pyrimethamine or VPA was detectable
concentration at 6 h ([2]; 30 mg/kg per day (divided into two equal doses), 6 hours, VPA monotherapy, read-out: Median plasma total VPA concentration): 47300 ng/mL
concentration at 14 day ([2]; 30 mg/kg per day, VPA monotherapy, six PLWH with uninterrupted exposure, read-out: Median VPA Ctrough): 84800 ng/mL
concentration at 6 h ([2]; 6 hours, combination treatment with pyrimethamine, read-out: Median plasma total VPA concentration): 47400 ng/mL
concentration at 14 day ([2]; combination treatment, four PLWH with uninterrupted exposure, read-out: Median VPA Ctrough): 113000 ng/mL

Reference: PMC10017042 (Science Advances, 2023)
